How the values were obtained:
Mus musculus [1] = experiment: Toxicity in mouse L1210 cells implanted CDF1 mouse assessed as survivors on day 5 at 6.4 mg/kg, ip single dose on day 1; type: organism-based; parameters: dose 6.4 mg/kg, route intraperitoneal; details: in vivo
L1210 [2] = experiment: Antitumor activity against mouse L1210 cells implanted in CDF1 mouse at 3.2 mg/kg, ip single dose on day 1 relative to control; type: functional; details: route intraperitoneal
Mus musculus [3] = experiment: Toxicity in mouse L1210 cells implanted CDF1 mouse assessed as average weight gain at 0.2 mg/kg, ip single dose on day 1; type: organism-based; parameters: dose 0.2 mg/kg, route intraperitoneal; details: in vivo
L1210 [4] = experiment: Antitumor activity against mouse L1210 cells implanted in CDF1 mouse at 0.2 mg/kg, ip single dose on day 1 relative to control; type: functional; details: route intraperitoneal
L1210 [5] = experiment: Antitumor activity against mouse L1210 cells implanted in CDF1 mouse at 0.8 mg/kg, ip single dose on day 1 relative to control; type: functional; details: route intraperitoneal
Mus musculus [6] = experiment: Toxicity in mouse L1210 cells implanted CDF1 mouse assessed as average weight gain at 0.4 mg/kg, ip single dose on day 1; type: organism-based; parameters: dose 0.4 mg/kg, route intraperitoneal; details: in vivo
L1210 [7] = experiment: Antitumor activity against mouse L1210 cells implanted in CDF1 mouse at 1.6 mg/kg, ip single dose on day 1 relative to control; type: functional; details: route intraperitoneal
Mus musculus [8] = experiment: Toxicity in mouse L1210 cells implanted CDF1 mouse assessed as survivors on day 5 at 0.8 mg/kg, ip single dose on day 1; type: organism-based; parameters: dose 0.8 mg/kg, route intraperitoneal; details: in vivo
L1210 [9] = experiment: Antitumor activity against mouse L1210 cells implanted in CDF1 mouse at 12.8 mg/kg, ip single dose on day 1 relative to control; type: functional; details: route intraperitoneal
L1210 [10] = experiment: Antitumor activity against mouse L1210 cells implanted in CDF1 mouse assessed as median survival time at 6.4 mg/kg, ip single dose on day 1; type: functional; details: route intraperitoneal
L1210 [11] = experiment: Antitumor activity against mouse L1210 cells implanted in CDF1 mouse assessed as median survival time at 1.6 mg/kg, ip single dose on day 1; type: functional; details: route intraperitoneal
L1210 [12] = experiment: Antitumor activity against mouse L1210 cells implanted in CDF1 mouse assessed as median survival time at 0.8 mg/kg, ip single dose on day 1; type: functional; details: route intraperitoneal
Mus musculus [13] = experiment: Toxicity in mouse L1210 cells implanted CDF1 mouse assessed as average weight gain at 6.4 mg/kg, ip single dose on day 1; type: organism-based; parameters: dose 6.4 mg/kg, route intraperitoneal; details: in vivo
Mus musculus [14] = experiment: Toxicity in mouse L1210 cells implanted CDF1 mouse assessed as median survival time at 25.6 mg/kg, ip single dose on day 1; type: organism-based; parameters: dose 25.6 mg/kg, route intraperitoneal; details: in vivo
L1210 [15] = experiment: Antitumor activity against mouse L1210 cells implanted in CDF1 mouse at 6.4 mg/kg, ip single dose on day 1 relative to control; type: functional; details: route intraperitoneal
L1210 [16] = experiment: Antitumor activity against mouse L1210 cells implanted in CDF1 mouse at 0.2 mg/kg, ip qd for 1 to 5 days relative to control; type: functional; details: route intraperitoneal
Mus musculus [17] = experiment: Toxicity in mouse L1210 cells implanted CDF1 mouse assessed as average weight gain at 0.8 mg/kg, ip single dose on day 1; type: organism-based; parameters: dose 0.8 mg/kg, route intraperitoneal; details: in vivo
Mus musculus [18] = experiment: Toxicity in mouse L1210 cells implanted CDF1 mouse assessed as average weight gain at 1.6 mg/kg, ip single dose on day 1; type: organism-based; parameters: dose 1.6 mg/kg, route intraperitoneal; details: in vivo
Mus musculus [19] = experiment: Toxicity in mouse L1210 cells implanted CDF1 mouse assessed as survivors on day 5 at 1.6 mg/kg, ip single dose on day 1; type: organism-based; parameters: dose 1.6 mg/kg, route intraperitoneal; details: in vivo
Mus musculus [20] = experiment: Toxicity in mouse L1210 cells implanted CDF1 mouse assessed as average weight gain at 3.2 mg/kg, ip single dose on day 1; type: organism-based; parameters: dose 3.2 mg/kg, route intraperitoneal; details: in vivo
L1210 [21] = experiment: Antitumor activity against mouse L1210 cells implanted in CDF1 mouse assessed as median survival time at 3.2 mg/kg, ip single dose on day 1; type: functional; details: route intraperitoneal
L1210 [22] = experiment: Antitumor activity against mouse L1210 cells implanted in CDF1 mouse assessed as median survival time at 0.4 mg/kg, ip single dose on day 1; type: functional; details: route intraperitoneal
Mus musculus [23] = experiment: Toxicity in mouse L1210 cells implanted CDF1 mouse assessed as survivors on day 5 at 0.4 mg/kg, ip single dose on day 1; type: organism-based; parameters: dose 0.4 mg/kg, route intraperitoneal; details: in vivo
L1210 [24] = experiment: Antitumor activity against mouse L1210 cells implanted in CDF1 mouse at 0.4 mg/kg, ip single dose on day 1 relative to control; type: functional; details: route intraperitoneal
L1210 [25] = experiment: Antitumor activity against mouse L1210 cells implanted in CDF1 mouse assessed as median survival time at 12.8 mg/kg, ip single dose on day 1; type: functional; details: route intraperitoneal
L1210 [26] = experiment: Antitumor activity against mouse L1210 cells implanted in CDF1 mouse assessed as median survival time at 0.2 mg/kg, ip single dose on day 1; type: functional; details: route intraperitoneal
Mus musculus [27] = experiment: Toxicity in mouse L1210 cells implanted CDF1 mouse assessed as survivors on day 5 at 3.2 mg/kg, ip single dose on day 1; type: organism-based; parameters: dose 3.2 mg/kg, route intraperitoneal; details: in vivo
Mus musculus [28] = experiment: Toxicity in mouse L1210 cells implanted CDF1 mouse assessed as average weight gain at 12.8 mg/kg, ip single dose on day 1; type: organism-based; parameters: dose 12.8 mg/kg, route intraperitoneal; details: in vivo

CC[C@@]1(O)C[C@H](O[C@H]2C[C@H](N(C)C)[C@H](O[C@H]3C[C@H](O)[C@H](O[C@H]4C[C@H](O)[C@H](O)[C@H](C)O4)[C@H](C)O3)[C@H](C)O2)c2c(cc3c(c2O)C(=O)c2c(O)ccc(O)c2C3=O)[C@H]1C(=O)OC [MARCELLOMYCIN]
Activity (Mus musculus [1]): Active
T/C (L1210 [2]): 142%
weight gain (Mus musculus [3]): 2.7 g
T/C (L1210 [4]): 100%
T/C (L1210 [5]): 117%
weight gain (Mus musculus [6]): 2.8 g
T/C (L1210 [7]): 133%
Activity (Mus musculus [8]): Active
T/C (L1210 [9]): 158%
MST (L1210 [10]): 8.5 days
MST (L1210 [11]): 8 days
MST (L1210 [12]): 7 days
Activity (Mus musculus [13]): -1.7 g
Activity (Mus musculus [14]): Toxic
T/C (L1210 [15]): 142%
T/C (L1210 [16]): 117%
weight gain (Mus musculus [17]): 1.8 g
weight gain (Mus musculus [18]): 1.4 g
Activity (Mus musculus [19]): Active
Activity (Mus musculus [20]): -0.5 g
MST (L1210 [21]): 8.5 days
MST (L1210 [22]): 6.5 days
Activity (Mus musculus [23]): Active
T/C (L1210 [24]): 108%
MST (L1210 [25]): 9.5 days
MST (L1210 [26]): 6 days
Activity (Mus musculus [27]): Active
Activity (Mus musculus [28]): -1.9 g
